What was measured:
[1] = BestDose multiple-model Bayesian adaptive dose optimization software, individual simulations for an infant and an older child; parameters: species or system human; conditions: trapezoidal approximation to hourly software predictions
Source text: We incorporated the final population PK model into a teicoplanin multiple-model Bayesian adaptive dosing controller (the software “cartridge”). The controller is based on the concepts and software (BestDose) developed by the University of Southern California Laboratory for Applied Pharmacokinetics and Bioinformatics (LAPKB) (http://www.lapk.org) ([35], [36]). The teicoplanin cartridge included the final structural model equations relating input (dosing information) to output (concentrations of the drug in plasma) and the discrete joint probability distribution of the values of the equation variables (PK parameters) in the population, consisting of a discrete number of support points and their associated probabilities (the Bayesian prior). […]
The dose optimization software was tested by comparing the estimated predicted PK profile plot against the observations, as well as by the linear regression of the observed-versus-predicted concentrations for each individual patient. From the predicted concentrations based on the median individual Bayesian posterior parameter distribution, we calculated the bias, which is equal to the mean weighted predicted error (∑ wpe/N), where wpe is (predicted concentration − actual concentration)/(SD for each prediction/observation), N is the number of observations, and the percentage of bias. […]

[2] = Nonparametric population PK model (two-compartment, allometric, renal function) fitted to plasma teicoplanin concentrations in neonates, infants and children; type: in vivo, human; conditions: final model
Source text: Pharmacokinetic data from 57 children (39 children aged 1 month to 16 years old and 18 neonates with a postmenstrual age [PMA] between 26 and 44 weeks) were available for model building. Patients were prospectively enrolled from two different hospitals in Liverpool (Alder Hey NHS Children's Foundation Trust and Liverpool Women's Hospital) over a 21-month period (April 2013 and January 2015). These PK data have been reported previously in two separate population models ([1], [2]). […] Such an approach avoids the problem of having multiple pharmacokinetic models for the same drug, each with an arbitrarily chosen cutoff value for age or size.
Neonates with a PMA of ≤44 weeks received a loading dose of 16 mg/kg, followed by 8 mg/kg once daily via a 30-min intravenous (i.v.) infusion. Children >1 month old received three loading dosages of 10 mg/kg every 12 h, followed by 10 mg/kg once daily via an i.v. bolus infusion (2 to 5 min), according to the dosages currently recommended by the SPC ([11]). Plasma samples were collected during the first dosage interval and then at steady state (1, 3, 6, and 24 h postdose) on days 3 to 7 of therapy. Neonates weighing <1,000 g contributed two samples per dosing interval because of constraints on sample volume. The duration of the treatment course was at the discretion of the treating physician. All patients received teicoplanin for proven or suspected methicillin-resistant staphylococcal sepsis (due to either coagulase-negative staphylococci [CoNS] or MRSA) and/or central-line-associated bloodstream infection. Demographic variables included weight, height, age in years, PMA in weeks, postnatal age (PNA) in days, serum albumin concentration (in grams per liter), and serum creatinine concentration. The estimated glomerular filtration rate (eGFR) (Schwartz-Haycock) ([28]) was also available for each patient.
Teicoplanin concentrations were measured using a commercially available fluorescence polarization immunoassay (FPIA; Thermo Fisher Scientific, Germany). The limit of quantification (LOQ) was <3.0 mg/liter. The dynamic range was 3 to 100 mg/liter, and overall precision (intra- and interday variability) was <6%.
A PK model was fitted to the data using Pmetrics, version 1.4.2 for R, statistical package 3.2.2, which utilizes the nonparametric adaptive grid (NPAG) algorithm ([29]). The inverse of the estimated assay variance was used to weight the data. Initially, a standard two-compartment model with time-delimited zero-order i.v. input and first-order elimination from the central compartment was developed. The standard model is described by differential equations 1a and 1b below: (1a) dX(1)/dt=R(1)−(Kcp+Cl/V)⋅X(1)+[Kpc⋅X(2)] (1b) dX(2)/dt=Kcp⋅X(1)−Kpc⋅X(2) where X(1) and X(2) represent the amounts of teicoplanin (in milligrams) in the central (c) and peripheral (p) compartments, respectively; R(1) is the rate of infusion of the drug into the central compartment (in milligrams per hour); clearance (Cl) from the central compartment is measured in liters per hour; volume (V) is measured in liters; and the central and peripheral compartments are connected by the first-order rate constants Kcp and Kpc (measured per hour).
In neonates and children, clearance generally scales with size in a nonlinear manner that is best described using a power function. A scaling exponent of 0.75 is most frequently used (i.e., clearance is proportional to weight^0.75). In addition, physiological maturation may also affect clearance, and this is especially important for neonates and young infants ([30], [31]). In the model-building process, we switched from using clearance to using Ke (measured per hour) as the first-order elimination rate constant, where Ke is calculated as Cl/V and is proportional to weight^−0.25. While it is possible to estimate the scaling exponents directly, we chose to fix these values as previously described by others ([24], [30], [31]). […]

## teicoplanin
[1]; Patient 1 (infant, 5 months, 6.3 kg, eGFR 63.84 ml/min/1.73 m^2)
  Median (range) 24-h AUC along the treatment course: 493.8 (355.8–574) mg · h/liter
[1]; Patient 2 (child, 16.3 kg, eGFR 108.41 ml/min/1.73 m^2)
  Median (range) 24-h AUC along the treatment course: 368.1 (318.9–388.4) mg · h/liter
[2]; n = 57, occasion 1 (<96 h), Volume = V0 · (wt/70), population mean
  V01, weight-standardized volume of the central compartment (V0), mean: 22.636 L
[2]; n = 57, occasion 1 (<96 h), Volume = V0 · (wt/70), population median
  V01, weight-standardized volume of the central compartment (V0), median: 19.52 L
[2]; n = 57, occasion 1 (<96 h), standardized to 70 kg, Ke = Ke0 · (wt/70)^−0.25 · Renal, population median
  Ke01, weight-standardized elimination rate constant (Ke0), median: 0.03 h⁻¹
[2]; n = 57, occasion 2 (samples ≥96 h), standardized to 70 kg, population mean
  Ke02, weight-standardized elimination rate constant (Ke0), mean: 0.036 h⁻¹
[2]; n = 57, occasion 2 (≥96 h), Volume = V0 · (wt/70), population mean
  V02, weight-standardized volume of the central compartment (V0), mean: 22.472 L
[2]; n = 57, occasion 2 (≥96 h), Volume = V0 · (wt/70), population median
  V02, weight-standardized volume of the central compartment (V0), median: 22.7 L
[2]; n = 57, occasion 2 (≥96 h), standardized to 70 kg, population median
  Ke02, weight-standardized elimination rate constant (Ke0), median: 0.025 h⁻¹
[2]; n = 57, patients >3 months old, population mean
  pw, power function (Renal = eGFR^pw), mean: 0.125
[2]; n = 57, patients >3 months old, population median
  pw, power function (Renal = eGFR^pw), median: 0.07
[2]; n = 57, population mean
  Kcp, first-order intercompartmental rate constant, mean: 0.490 h⁻¹
  Kpc, first-order intercompartmental rate constant, mean: 0.214 h⁻¹
[2]; n = 57, population median
  Kcp, first-order intercompartmental rate constant, median: 0.23 h⁻¹
  Kpc, first-order intercompartmental rate constant, median: 0.12 h⁻¹
[2]; n = 57 neonates and children, i.v., occasion 1 (samples <96 h after treatment initiation), standardized to 70 kg, Ke = Ke0 · (wt/70)^−0.25 · Renal, population mean
  Ke01, weight-standardized elimination rate constant (Ke0), mean: 0.038 h⁻¹

— article PMC5610524, “Tools for the Individualized Therapy of Teicoplanin for Neonates and Children” (Antimicrobial Agents and Chemotherapy, 2017)
